One data set has as its system Rattus norvegicus. The note with it: for NOAEL: reproduction developmental; for LD50: acute, oral, mortality.
Another data set deals with Colinus virginianus. The following applies: acute, oral, mortality.
A further data set relates to Lepomis macrochirus. The note with it: acute; duration: 96 hours; mortality.
Another data set deals with Bibionidae. The note with it: chronic/long-term; duration: 28 days; M/F; development.
A further data set has as its system Apis mellifera. The note with it: acute, duration: 48 hours, mortality.
The test system of the next data set is Canidae. The following applies: chronic; duration: 1 years; oral; Dog Other; clinical signs.
The test system of a further data set is Pimephales promelas. The note with it: chronic/long-term.
The next data set concerns Typhlodromus pyri. Description: LR50; higher = less toxic. The note with it: chronic/long-term; duration: 7 days; mortality.
The test system of another data set is Aphidius rhopalosiphi. Briefly: LR50; higher = less toxic. The following applies: not reported; mortality.

≈ marks a conversion by molar mass, not a printed value. Where only a bound is given, the exact number is not on record here.

Take `CC1(C)C(C=C(Cl)C(F)(F)F)C1C(=O)OC(C#N)c1cccc(Oc2ccccc2)c1` (stereo not drawn) [alpha-Cyhalothrin]: the NOAEL – broadly, the highest tested level that showed no adverse finding – with Rattus norvegicus came out at 0.125 mg/kg-day; in the data set on Rattus norvegicus (body weight) it was 0.5 mg/kg-day.

With `CC1(C)[C@H](C(=O)O[C@H](C#N)c2cccc(Oc3ccccc3)c2)[C@@H]1/C=C(\Cl)C(F)(F)F` [gamma-Cyhalothrin], the LC50 was greater than 1300 mg/kg in the data set on Tagia sp. (acute, duration: 14 days, mortality) and 0.0354 ng/mL (≈ 0.0787 nM) in the data set with Lepomis macrochirus. In addition, the NOEC stood at 0.5 mg/kg in the data set with Tagia sp. (chronic/long-term, reproduction); 0.0469 µg/L in the data set on Bibionidae; 0.0155 µg/L in the data set on Pimephales promelas. The LD50 in the data set on Colinus virginianus (diet) was 225 mg/kg-day; in the data set with Colinus virginianus, greater than 2000 mg/kg-day; in the data set with Rattus norvegicus (F) it was greater than 55 mg/kg-day; with Rattus norvegicus (M), greater than 50 mg/kg-day; with Apis mellifera (dermal), 0.005 µg/piece; in the data set on Apis mellifera (oral, unspecified), 4.2 µg/piece. Also, the LD50 with Anas platyrhynchos (short-term, oral, feed, mortality) is greater than 429 mg/kg-day. For the same molecule, the NOAEL in the data set with Rattus norvegicus (body weight) and in the data set with Canidae was 0.5 mg/kg-day in each case. The LR50 with Typhlodromus pyri worked out at 0.0006 g/ha; in the data set on Aphidius rhopalosiphi it was 0.23 g/ha.

In the data set with Canidae, `CC1(C)[C@H](/C=C(\Cl)C(F)(F)F)[C@@H]1C(=O)O[C@@H](C#N)c1cccc(Oc2ccccc2)c1` [lambda-Cyhalothrin] displayed an NOAEL of 0.5 mg/kg-day. The same molecule gave an NOEC in the data set with Anas platyrhynchos (reproductive, reproduction) of 1.35 mg/kg-day.

Values taken from EPA's ToxValDB 9.5 (doi:10.2903/j.efsa.2014.3560).
